Measurements published in US20020068346A1, “Modified inosine 5'-monophosphate dehydrogenase polypeptides and uses thereof” (priority 2000, published 2002).

Experiments:
“DKT”-IMPDH-II = target: T1, “DKT”-IMPDH-II (Homo sapiens, UniProt P12268, DEL111-240/K241D/Q243T); experiment: Steady state enzyme kinetics: inhibition of IMPDH-DKT by XMP and MPA; format: biochemical; settings: for Inhibition type: steady state kinetics
T1 construct: The full-length, human, type II impdh cDNAs were used as templates; made in house; host or cells: E. coli BL21(DE3), pET24a
T1 sequence (P12268 with tags, fused parts or gaps DEL111-240/K241D/Q243T): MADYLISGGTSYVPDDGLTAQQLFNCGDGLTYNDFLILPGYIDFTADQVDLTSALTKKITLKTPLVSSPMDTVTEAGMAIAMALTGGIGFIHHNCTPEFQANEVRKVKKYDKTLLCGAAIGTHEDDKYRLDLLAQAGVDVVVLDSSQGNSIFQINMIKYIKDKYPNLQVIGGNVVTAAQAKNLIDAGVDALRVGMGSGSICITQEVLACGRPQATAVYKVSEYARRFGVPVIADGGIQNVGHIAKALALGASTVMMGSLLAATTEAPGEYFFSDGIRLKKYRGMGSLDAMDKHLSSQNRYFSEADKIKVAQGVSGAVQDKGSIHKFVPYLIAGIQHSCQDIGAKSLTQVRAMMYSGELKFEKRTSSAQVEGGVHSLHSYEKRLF

[1] = tested on: conversion of NAD to NADH in the presence of IMP; experiment: Functional activity of modified IMPDH multimers: conversion of NAD to NADH measured spectrophotometrically at 340 nm; format: biochemical, human; settings: partially purified protein, 0.40 mM IMP, 0.40 mM NAD, 37° C.
Procedure: Polypeptides of the modified IMPDH-DKT, -SPS, -SPT, and -AGRP were isolated and partially purified using a blue dye affinity chromatographic step. All steps were performed at 4° C. unless otherwise noted. The frozen cell pellets (e.g., described in Example 1) were thawed on ice, and resuspended in 10 mL of Buffer A (25 mM Tris, pH 8.2, 20 mM KCl, 10% glycerol (v/v), 1 mM EDTA, 5 mM DTT, and 1 μg/mL leupeptin). The cells were lysed by 2×20 second sonication pulses using a ¼″ Microtip on a Branson model 450 sonifier (set on 2.5 power setting), and excessive foaming was carefully avoided. […] The samples were evaluated for the presence of the modified IMPDH polypeptides and to approximate the purity using standard SDS-PAGE methods, with Coomassie blue staining. For each of the modified IMPDH polypeptides, it was determined that the purity of the Buffer C fractions contained approximately 75% modified IMPDH polypeptide. The total protein content was quantitated using the Bradford assay method (Bradford, M. M., 1976, Anal. Biochem., 72: 248), with Biorad protein reagent (product #500-0006) and using BSA as a protein standard.
To evaluate the functional activity of the modified IMPDH polypeptides, the conversion of NAD to NADH was measured spectrophotometrically at 340 nm, 37° C. […] The production of NADH was determined by δOD^340 (ε=6220 M^−1 cm^−1), measured for 5 min. […]

Row | Molecule | Inhibition type (“DKT”-IMPDH-II) | NADH produced [1] | Ki (“DKT”-IMPDH-II; buffer D, 50 nM protein) [µM]
1 | COc1c(C)c2c(c(O)c1C/C=C(\C)CCC(=O)O)C(=O)OC2 [MPA, Mycophenolic acid] | Uncompetitive vs. IMP | – | –
2 | wild-type IMPDH holoenzyme: wild-type human type II IMPDH holo-enzyme, SEQ ID NO:49 [reference compound] | – | approximately 1.00 μmoles/min mg protein | –
3 | O=c1[nH]c(=O)c2ncn([C@@H]3O[C@H](COP(=O)(O)O)[C@@H](O)[C@H]3O)c2[nH]1 [XMP, xanthosine-5′-monophosphate] | Competitive vs. IMP | – | 67 ± 5
